Assay results published in publication PMC7175277, “Hydroxylamine Analogue of Agmatine: Magic Bullet for Arginine Decarboxylase” (Biomolecules, 2020).

Columns and labels:
[1] = tested on: Acremonium chrysogenum high-cephalosporin-yielding (HY) RNCM F-4081D; experiment: Fungal growth inhibition (drop-dilution, CD agar), HY strain; type: cell-based; details: Hapsidospora chrysogena, 336 h, read-out: Growth inhibition
Description: (§1) Two strains of Acremonium chrysogenum were used in this study: the wild-type (Brotzu) isolate ATCC 11550 (WT) and high-cephalosporin-yielding RNCM F-4081D (HY), derived from the WT [37]. The cultivation conditions were the same as previously described. The filamentous fungi were cultivated on agarized Czapek-Dox (CD) medium (30 g/L sucrose, 2 g/L NaNO3, 1 g/L K2HPO4, 0.5 g/L MgSO4×7 H2O, 0.5 g/L KCl, 0.01 g/L FeSO4×7 H2O, 20 g/L agar, pH 7.0–7.4). To determine the toxic effect of AO-Agm, APA, DFMA and DFMO on the growth of fungal cells the drop-dilution method was used with some modifications as described earlier. Cells were collected from agar slants and diluted with 0.9% NaCl solution up to OD600 = 0.5 (basic concentration), followed by serial tenfold dilutions with the same solution. […] The inoculated Petri dishes were incubated for 21 days at 26 °C. The inhibitory effects of the compounds were measured every three days after inoculation and evaluated by measuring the ratio of colony growth on agarized CD medium supplemented with AO-Agm, APA, DFMA, or DFMO to the growth in the control (agarized CD medium without any additions). The formula: growth inhibition % = [(Dc − Dt)/Dc] × 100, where Dc indicates the colony diameter in control set, and Dt indicates the colony diameter in the treatment set that was used to determine the percent of fungal growth inhibition. The data recorded were measured in triplicate and repeated at least twice.

[2] = tested on: Acremonium chrysogenum wild-type (WT) ATCC 11550; experiment: Fungal growth inhibition (drop-dilution, CD agar), WT strain; type: cell-based; details: Hapsidospora chrysogena, ATCC11550, 336 h, 5 mM inhibitor, 14 days after inoculation on CD medium
Description: as §1

E. coli ADC = molecular target: T1, E. coli ADC (Escherichia coli, UniProt P21170); experiment: Ultrafiltration of ADC~PLP=AO-Agm complex, then ADC activity assay; type: biochemical; details: 15 μM AO-Agm
T1 construct: The kinetic parameters determined for the partially purified biosynthetic ADC from E. coli; endogenous in cells; host or cells: E. coli DH5α (39-53% ammonium sulphate fraction of the lysate, desalted)
T1 sequence (P21170 1-658): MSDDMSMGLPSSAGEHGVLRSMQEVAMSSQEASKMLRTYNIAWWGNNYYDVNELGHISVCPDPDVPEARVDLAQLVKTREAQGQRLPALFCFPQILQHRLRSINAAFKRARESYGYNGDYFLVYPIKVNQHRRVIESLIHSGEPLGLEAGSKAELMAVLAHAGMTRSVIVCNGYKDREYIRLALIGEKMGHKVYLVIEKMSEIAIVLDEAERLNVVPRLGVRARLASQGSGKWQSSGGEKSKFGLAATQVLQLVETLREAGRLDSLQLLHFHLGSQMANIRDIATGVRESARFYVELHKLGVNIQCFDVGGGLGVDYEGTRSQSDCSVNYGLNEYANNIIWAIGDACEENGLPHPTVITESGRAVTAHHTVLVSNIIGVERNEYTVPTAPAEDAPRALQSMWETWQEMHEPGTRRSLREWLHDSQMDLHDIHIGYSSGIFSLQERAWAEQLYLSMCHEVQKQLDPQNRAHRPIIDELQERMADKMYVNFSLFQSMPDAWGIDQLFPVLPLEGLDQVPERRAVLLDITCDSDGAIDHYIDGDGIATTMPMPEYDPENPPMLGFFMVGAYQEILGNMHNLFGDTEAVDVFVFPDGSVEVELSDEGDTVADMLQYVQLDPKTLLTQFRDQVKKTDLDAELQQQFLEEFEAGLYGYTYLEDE
Procedure: Partially purified enzyme preparation was preincubated for 15 min with 15 μM AO-Agm (which produced 100% inhibition) or H2O (control) and 0.1 mM PLP in the assay buffer. The samples were placed on ice, and half of the reactions were filtered through a 3K cutoff ultrafiltration device (Millipore) and washed twice with 600 μL of buffer containing 50 mM Tris-HCl pH 7.4, 1 mM DTT and 0.1 mM PLP. ADC activity was then assayed.

mouse kidney ODC = molecular target: T2, mouse kidney ODC (Mus musculus, UniProt P00860); experiment: Assay of mouse kidney ODC activity; type: biochemical; details: 0.4 mM L-Orn; 0.4 mM PLP
T2 construct: from tissue; host or cells: C57Bl/6J male mouse kidney, 12,000 g supernatant of the homogenate
T2 sequence (P00860 1-461): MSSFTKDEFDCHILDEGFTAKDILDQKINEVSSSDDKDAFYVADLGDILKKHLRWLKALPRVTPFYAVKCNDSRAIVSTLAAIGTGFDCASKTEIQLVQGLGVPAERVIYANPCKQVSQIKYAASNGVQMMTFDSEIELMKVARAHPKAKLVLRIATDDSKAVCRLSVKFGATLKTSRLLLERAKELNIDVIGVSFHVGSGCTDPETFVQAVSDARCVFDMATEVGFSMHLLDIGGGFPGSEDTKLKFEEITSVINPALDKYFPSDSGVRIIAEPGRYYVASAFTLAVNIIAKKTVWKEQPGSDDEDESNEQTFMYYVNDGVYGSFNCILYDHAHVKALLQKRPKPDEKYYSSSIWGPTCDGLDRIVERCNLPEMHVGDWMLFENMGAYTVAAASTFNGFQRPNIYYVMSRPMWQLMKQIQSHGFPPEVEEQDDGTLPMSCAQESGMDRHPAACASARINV
Procedure: C57Bl/6J male mouse kidney was homogenized with TissueLyzer (Qiagen) to 2 volumes of buffer containing 50 mM Tris-HCl pH 7.4, 1 mM DTT, 1 mM EDTA, 0.1% Triton X-100 and 1× Complete EDTA-free protease inhibitor cocktail (Roche) and centrifuged at 12,000 g for 30 min at +4 °C. Aliquots of the supernatant were mixed with 1–5000 μM of AO-Agm and the ODC assay was carried out as previously described. The reaction mixture contained 0.4 mM PLP and 0.4 mM L-Orn.

In the case of N=C(N)NCCCON [AO-Agm, 1-aminooxy-3-guanidinopropane], the inhibition at 5000 µM [1] is reported as 49%, the inhibition at 5000 µM [2] is reported as 34% and the inhibition at 15 µM (E. coli ADC; 15 min preincubation, 0.1 mM PLP) is reported as 100%. For the same compound, the “ADC activity after ultrafiltration and washing of the inhibitory complex” value (E. coli ADC; buffer containing 0.1 mM PLP) was “fully restored ADC activity” and the IC50 (mouse kidney ODC) was 5.3 ± 0.7 µM.
